From patent US20140294942A1, “ANTIVIRAL PEPTIDES EFFECTIVE AGAINST HEPATITIS C VIRUS” (THE REGENTS OF THE UNIVERSITY OF CALIFORNIA, priority 2011, published 2014)
Entries after “also recorded” stand apart in the source; their conditions may differ. Like-named read-outs stand apart in the source and are kept apart here. Bridge positions count the residues as written; N and C are the ends. Square brackets hold non-standard residues; d marks the D form. Peptide text beside a SMILES is read from it. Cha = N[C@@H](CC1CCCCC1)C(=O)O; Ahx = NCCCCCC(=O)O

Columns and labels:
protease = protease (Hepatitis C virus genotype 1a, UniProt P27958); details: protease assay; reported in the literature; read-out: IC50 in in vitro Assays; cited from earlier work
protease, sequence (P27958 1027-1657 limits assumed): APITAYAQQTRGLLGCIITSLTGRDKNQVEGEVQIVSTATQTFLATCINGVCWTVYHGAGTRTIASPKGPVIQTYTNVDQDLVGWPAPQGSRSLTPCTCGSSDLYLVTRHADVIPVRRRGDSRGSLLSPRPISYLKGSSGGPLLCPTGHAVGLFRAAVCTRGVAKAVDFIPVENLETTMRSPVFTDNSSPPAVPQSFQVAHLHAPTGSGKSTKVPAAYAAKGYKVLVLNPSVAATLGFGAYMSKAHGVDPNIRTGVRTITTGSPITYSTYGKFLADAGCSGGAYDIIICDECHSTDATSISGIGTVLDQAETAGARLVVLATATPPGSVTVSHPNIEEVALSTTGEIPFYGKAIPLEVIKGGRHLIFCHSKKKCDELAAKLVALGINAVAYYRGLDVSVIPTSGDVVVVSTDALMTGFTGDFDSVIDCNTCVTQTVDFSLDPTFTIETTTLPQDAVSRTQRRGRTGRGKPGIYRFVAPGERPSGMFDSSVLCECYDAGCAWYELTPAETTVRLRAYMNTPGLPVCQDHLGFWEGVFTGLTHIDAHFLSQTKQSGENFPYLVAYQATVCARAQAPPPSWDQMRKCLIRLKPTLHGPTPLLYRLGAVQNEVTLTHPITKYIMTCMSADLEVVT
protease, sequence (P27958 1658-1711 partner limits assumed): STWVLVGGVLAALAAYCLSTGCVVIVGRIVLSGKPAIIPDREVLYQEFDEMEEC

replicon = details: reported in the literature, read-out: IC50 in Cell Culture; cited from earlier work
polymerase = polymerase (Hepatitis C virus genotype 1a, UniProt P27958); details: polymerase assay; reported in the literature; read-out: IC50 in in vitro Assays; cited from earlier work
polymerase, sequence (P27958 2421-3011): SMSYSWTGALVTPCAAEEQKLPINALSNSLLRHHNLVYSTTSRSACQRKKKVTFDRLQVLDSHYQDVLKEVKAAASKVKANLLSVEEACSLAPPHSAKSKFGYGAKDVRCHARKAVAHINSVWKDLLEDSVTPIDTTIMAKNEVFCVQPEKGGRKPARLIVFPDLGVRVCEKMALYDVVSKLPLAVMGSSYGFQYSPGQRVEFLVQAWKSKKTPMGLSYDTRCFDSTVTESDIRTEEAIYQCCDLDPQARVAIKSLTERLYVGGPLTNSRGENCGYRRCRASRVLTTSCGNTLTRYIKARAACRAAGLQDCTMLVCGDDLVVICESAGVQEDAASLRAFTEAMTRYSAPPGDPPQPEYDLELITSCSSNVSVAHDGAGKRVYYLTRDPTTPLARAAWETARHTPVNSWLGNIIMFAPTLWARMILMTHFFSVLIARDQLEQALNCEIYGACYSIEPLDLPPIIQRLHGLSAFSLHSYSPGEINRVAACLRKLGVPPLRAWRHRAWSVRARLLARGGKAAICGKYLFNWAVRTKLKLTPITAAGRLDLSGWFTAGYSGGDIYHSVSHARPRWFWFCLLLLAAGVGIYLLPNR

HCV = details: previously shown (Gonzalez et al. 2009); cited from earlier work
[1] = system: NS5A-augmented IRES-mediated translation; details: previously shown (Gonzalez et al. 2009); cited from earlier work
[2] = primer extension; reported in the literature; read-out: IC50 in in vitro Assays; cited from earlier work
Huh-7.5 cells = system: Huh-7.5 cells
Description: (§1) Huh-7.5 cells were transfected with the indicated peptide construct and 48 hours later infected with the reporter virus for three hours. Cells were harvested 24 hours post infection, and Renilla activity was measured. All Renilla values were normalized to GFP transfection. […] Huh-7.5 cells were treated with the indicated concentrations of HCV4 or the arginine tag control peptide and immediately infected with the Renilla reporter virus for three hours. Cells were assayed 24 hours post infection for Renilla activity. ‘Percent protection’ refers to the percentage of decrease in Renilla levels compared with no peptide treatment.
Cell viability was determined using MTT Cell Proliferation assay (ATCC, 30-1010K).
(§2) Two cysteine residues were added to each end to allow for disulfide bond formation and to achieve a conformation similar to the C34 hairpin. Also an arginine tag was added to the N-terminal cysteine to allow for efficient uptake by cells without any transfection reagent. Huh-7.5 cells were treated with concentrations of HCV4 peptide ranging from 100 μM to 10 pM in the HCVcc system and were immediately infected with the HCV Renilla reporter virus.

[3] = system: HCV Renilla reporter virus
Description: as §1
pNRLFC was in vitro transcribed, and the purified RNA was electroporated into Huh-7.5 cells to generate infectious viral supernatant as previously described (Arumugaswami et al. (2008) PLoS Pathogens, 4: e1000182). Viral assays were done using the HCV reporter virus as described previously (Gonzalez et al. (2009) Hepatology50: 1756-1764).
as §2

[4] = system: NS5A-augmented IRES-mediated translation; assay: Bicistronic HCV IRES reporter assay (Firefly/Renilla luciferase); type: cell-based, Hepatitis C virus; details: for effect of peptide treatment on NS5A-augmented IRES-mediated translation: cells treated with peptide and transfected with reporter construct and NS5A or GFP
Description: FIG. 5A: Schematic of the bicistronic reporter construct used to measure IRESmediated translation. Firefly luciferase (FLuc) and Renilla luciferase (RLuc) are driven by HCV IRES and a 5′ cap, respectively. Each reporter has a stop codon to allow independent expression. Firefly to Renilla ratios are used to follow changes in levels of IRES-mediated translation. For all experiments, the IRES reporter, either NS5A or GFP, and a peptide construct (if indicated) were transfected into cells.
293T cells were transfected with HCV IRES reporter plasmid; either pMSCV5AFLAG or pMSCVGFP; and pCCL-CMV-IRES-EGFP plasmid expressing one of the following peptides: C34, NS5A domain II peptide, NS5A domain III peptide, NS3 peptide, or one of the C34 mutagenesis peptides. All transfections were done using Fugene 6 (Roche, 11814443001). 48 hours post transfection, Renilla and Firefly luciferase activity was determined using Dual Luciferase Assay System (Promega, E1910).
After identifying the C-terminal region of NS5A as the HSP70 binding site in vitro, we sought to determine whether this region has any functional significance. NS5A has been reported to increase IRES-mediated translation in a cell culture-based bicistronic reporter system (He et al. (2003) J. General Virol., 84: 535-543) (FIG. 5A). This reporter system consists of the Firefly luciferase open reading frame (ORF) driven by HCV IRES and Renilla luciferase ORF under the control of a 5′ cap (FIG. 5A). The ratio of Firefly to Renilla luciferase activity can be used to measure the levels of IRES-mediated translation. The C-terminal 34 amino acid peptide corresponding to amino acids 165-198 of NSSA domain I (hereafter referred to as C34) was tested for its effect on altering IRES-mediated translation. […]
We also assessed the impact of the HCV4 peptide on NS5A-augmented IRES-mediated translation. […]

COc1ccc2c(O[C@@H]3C[C@H]4C(=O)N[C@]5(C(=O)NS(=O)(=O)C6CC6)C[C@H]5/C=C\CCCCN(C)C(=O)[C@@H]4C3)cc(-c3nc(C(C)C)cs3)nc2c1C [TMC435]
IC50 (protease): 13 nM

C=C[C@@H]1C[C@]1(NC(=O)[C@@H]1C[C@@H](Oc2cc(-c3csc(NC(=O)C(C)C)n3)nc3c(Br)c(OC)ccc23)CN1C(=O)[C@@H](NC(=O)OC1CCCC1)C(C)(C)C)C(=O)O [Bl 201335]
IC50 (replicon): 3.1 to 50 nM

Fc1ccccc1-c1nc2ccn(Cc3ccc(-c4ccc(C(F)(F)F)cc4C(F)(F)F)nn3)cc-2n1 [GS-9190, Tegobuvir]
IC50 (polymerase): > 71000 nM

O=c1c(O)c(-c2ccc(O)c(O)c2)oc2cc(O)cc(O)c12 [Quercetin]
effect on virus production (HCV): blocked
effect on NS5A-augmented IRES-mediated translation [1]: blocked

CCc1cc(CC[C@]2(C3CCCC3)CC(O)=C(Cc3nc4nc(C)cc(C)n4n3)C(=O)O2)cc(CC)n1 [Filibuvir]
IC50 [2]: 50 nM

CC(C)(C)OC(=O)N[C@H]1CCCCC/C=C\[C@@H]2C[C@@]2(C(=O)NS(=O)(=O)C2CC2)NC(=O)[C@@H]2C[C@@H](OC(=O)N3Cc4cccc(F)c4C3)CN2C1=O [ITMN-191, Da noprevir]
IC50 (replicon): 1.8 nM

CC(C)C(=O)OC[C@H]1O[C@@H](n2ccc(N)nc2=O)[C@](C)(F)[C@@H]1OC(=O)C(C)C [R7128 (PSI-6130)]
IC50 (replicon): 600 nM

CC(C)[C@@H]1NC(=O)[C@H](CCCNC(=N)N)NC(=O)[C@H](Cc2ccccc2)NC(=O)[C@H](CO)NC(=O)[C@@H](NC(=O)CCCCCNC(=O)CCCCCNC(=O)[C@H](CCCNC(=N)N)NC(=O)CCCCCNC(=O)[C@H](CCCNC(=N)N)NC(=O)CCCCCNC(=O)[C@H](CCCNC(=N)N)NC(=O)CCCCCNC(=O)[C@H](CCCNC(=N)N)NC(=O)CCCCCNC(=O)[C@H](CCCNC(=N)N)NC(=O)CCCCCNC(=O)[C@H](CCCNC(=N)N)NC(=O)CCCCCNC(=O)[C@@H](N)CCCNC(=N)N)CSSC[C@@H](C(N)=O)NC(=O)[C@@H]2CCCN2C(=O)[C@H](Cc2ccc(O)cc2)NC(=O)[C@H](CCC(=O)O)NC(=O)[C@H](Cc2c[nH]cn2)NC(=O)[C@H](CC2CCCCC2)NC(=O)[C@H]2CCCN2C1=O [HCV4, Arg-(Ahx-Arg)6-Ahx-Ahx-Cys-Ser-Phe-Arg-Val-(D)Pro-Cha-His-Glu-Tyr-Pro-Cys] (H-R[Ahx]R[Ahx]R[Ahx]R[Ahx]R[Ahx]R[Ahx]R[Ahx][Ahx]CSFRV[dP][Cha]HEYPC-NH2; disulfide 16-27; N-terminus assumed)
MTT toxicity (Huh-7.5 cells; 10 μM): slight toxicity
MTT toxicity (Huh-7.5 cells; 100 μM): toxicity
MTT toxicity (Huh-7.5 cells; any concentration lower than 10 μM): no cytotoxicity
IC50 ([3]; read-out: IC50 in Cell Culture, reporter virus): 0.542 nM
IC50 ([3]; read-out: estimated IC50, intracellular viral protein production, Huh-7.5 cells treated with peptide 100 μM to 10 pM, immediately infected with HCV Renilla reporter virus, Renilla activity 24 hours post infection): ~0.5 nM
effect of peptide treatment on NS5A-augmented IRES-mediated translation [4]: blocks

CC[C@@H]1C[C@]1(NC(=O)[C@@H]1C[C@@H]2CN1C(=O)[C@H](C(C)(C)C)NC(=O)OCC(C)(C)CCCCc1cccc3c1CN(C3)C(=O)O2)C(=O)NS(=O)(=O)C1CC1 [MK-7009, Vaniprevir]
IC50 (replicon): 5 to 15 nM

C/C=C/C[C@@H](C)[C@@H](O)[C@H]1C(=O)N[C@@H](CC)C(=O)N(C)[C@H](SCCN(C)C)C(=O)N(C)[C@@H](CC(C)(C)O)C(=O)N[C@@H](C(C)C)C(=O)N(C)[C@@H](CC(C)C)C(=O)N[C@@H](C)C(=O)N[C@H](C)C(=O)N(C)[C@@H](CC(C)C)C(=O)N(C)[C@@H](CC(C)C)C(=O)N(C)[C@@H](C(C)C)C(=O)N1C [SCY-635]
IC50 (replicon): 140 nM

R-(Ahx-R)6—CONH2 [arginine tag control peptide, reference compound]
effect on intracellular viral protein production ([3]; peptide added to Huh-7.5 cells without transfection reagent, immediately infected with Renilla reporter virus, assayed 24 hours post infection): did not show any effect
effect of peptide treatment on NS5A-augmented IRES-mediated translation [4]: fail to produce similar results

LREEVSFRVGLHEYPVGSQLPCEP EPDVAVLTSM [C34]
cell viability by MTT on peptide expression (Huh-7.5 cells; expressed from construct, data not shown): no effect
effect of expressed peptide on NS5A-augmented IRES-mediated translation ([4]; 293T cells transfected with IRES reporter, NS5A or GFP, and peptide construct, 48 hours post transfection): block; also recorded: suppresses
